Assay results: ChEMBL document CHEMBL1201862, “PubChem BioAssay data set” (2004)
Each block holds one compound with its values, some of them ahead of it. Activity calls are given as the source filed them.

Columns and labels:
[1] = CEM21 lymphoblast cell cytotoxicity, dose response, cytotoxicity control for viral fusion inhibitor project, CellTiter-Glo luminescence, cherry-picked (AID 652042); format: functional, cell-based;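 further: potency for signal decrease meaning cytotoxicity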
[2] = inhibitors of HIV Env-driven cell fusion, dose response, cherry-pick (AID 652057); format: functional, cell-based
[3] = inhibitors of clade B AD8 Env fusion, dose response, cell-based, cherry-pick (AID 652062); format: functional;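 further: luciferase signal from cell-cell fusion driven by HIV-1 clade B AD8 Env; potency is for inhibitors of fusion seen as a drop in luminescence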
[4] = HepG2 cell cytotoxicity, dose response, cytotoxicity control, cherry-picked samples (AID 1159577); format: functional, cell-based
[5] = P. falciparum Dd2 growth inhibitors, dose response, SYBR Green, cherry-picked samples (AID 1159567); format: functional, cell-based
[6] = HIV Env cell-cell fusion inhibitors, dose response, HIV entry, plate reader, dry powder (AID 687023); format: functional, cell-based
[7] = inhibitors of CMV-promoter luciferase reporter, dose response, counter-screen for Pax8 inhibitor project, cell-based, HEK293, luminescence, dry powder (AID 743020); format: functional
[8] = cytotoxicity in COV434 cells, dose response, cytotoxicity control for PAX8 inhibitor project, cell-based, plate reader, dry powder, SA7 (AID 743145); format: functional
[9] = HEK293T cytotoxicity, dose response, cytotoxicity control for miR-122 modulator project, cell-based, activator set, cherry-pick (AID 720690); format: functional;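 further: HEK293T human cells scored for general mammalian cytotoxicity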
[10] = cytotoxicity in OV-90 ovarian cancer cells, dose response, PAX8 inhibitor project, cell-based, plate reader, dry powder, SA8 (AID 743149); format: functional
[11] = cytotoxicity in OVCAR8 ovarian cancer cells, dose response, PAX8 project, cell-based, plate reader, dry powder samples (AID 743197); format: functional; settings: OVCAR-8
[12] = molecular target: Paired box protein Pax-8 (Homo sapiens, UniProt Q06710); experiment: inhibitors of PAX8-driven TPO luciferase reporter, dose response, RMG-I cells, cherry-pick (AID 687027); format: functional, cell-based;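 further: luciferase reporter driven by Pax8 target thyroperoxidase promoter measured by SteadyGlo luminescence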
Paired box protein Pax-8, sequence (Q06710 whole entry): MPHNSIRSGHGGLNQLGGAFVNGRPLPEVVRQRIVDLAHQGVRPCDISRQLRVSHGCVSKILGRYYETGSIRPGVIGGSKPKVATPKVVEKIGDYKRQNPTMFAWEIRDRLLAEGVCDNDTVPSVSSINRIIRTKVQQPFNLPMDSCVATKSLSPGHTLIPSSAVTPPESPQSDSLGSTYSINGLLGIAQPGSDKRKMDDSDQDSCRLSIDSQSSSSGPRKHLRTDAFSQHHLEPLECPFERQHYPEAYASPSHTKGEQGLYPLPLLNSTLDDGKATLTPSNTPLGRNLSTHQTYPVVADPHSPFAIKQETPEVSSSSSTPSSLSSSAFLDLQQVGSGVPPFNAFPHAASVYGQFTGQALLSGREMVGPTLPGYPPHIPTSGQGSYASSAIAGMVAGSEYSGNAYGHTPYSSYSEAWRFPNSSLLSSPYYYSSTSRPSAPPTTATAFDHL

[13] = PAX2 cell-based inhibition, dose response, selectivity assay for PAX8 inhibitor project, plate reader, dry powder samples (AID 743048); format: functional;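 further: HEK293 cells carrying a WT1 promoter luciferase reporter driven by expressed Pax2; potency is for inhibition of Pax2 driven reporter signal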
[14] = PAX5 activity inhibitors, dose response, selectivity assay for PAX8 inhibitor project, cell-based, plate reader, dry powder samples (AID 743047); format: functional;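 further: HEK293 cells carrying a Pax5 driven CD19 promoter luciferase reporter; potency of inhibitors that lower reporter luminescence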
[15] = cytotoxicity dependent on PAX8, dose response, cell-based, plate reader, dry powder (AID 743049); format: functional
[16] = molecular target: NAD-dependent protein deacylase sirtuin-5, mitochondrial (Homo sapiens, UniProt Q9NXA8); experiment: SIRT5 deacylase inhibitors, dose response, biochemical, fluorescence imaging, cherry-pick, set 6 (AID 720597)
NAD-dependent protein deacylase sirtuin-5, mitochondrial, sequence (Q9NXA8 whole entry): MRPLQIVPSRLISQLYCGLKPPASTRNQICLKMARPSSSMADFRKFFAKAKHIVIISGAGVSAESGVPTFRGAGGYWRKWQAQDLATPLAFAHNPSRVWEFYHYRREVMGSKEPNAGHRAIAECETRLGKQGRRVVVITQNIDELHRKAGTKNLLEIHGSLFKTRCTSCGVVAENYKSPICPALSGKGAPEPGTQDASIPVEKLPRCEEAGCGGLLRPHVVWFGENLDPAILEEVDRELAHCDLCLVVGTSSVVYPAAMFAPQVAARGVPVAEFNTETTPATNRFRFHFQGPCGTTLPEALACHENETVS

[17] = T. cruzi intracellular amastigote growth inhibition, dose response, imaging, CA-I/72 strain, bovine embryo skeletal muscle, dry powder (AID 651885); format: functional, cell-based
[18] = growth inhibition of intracellular T. cruzi, dose response, cell-based, plate reader, dry powder samples (AID 651845); format: functional
[19] = T. cruzi growth inhibition in host cells, dose response, cell-based, plate reader, dry powder, set 2 (AID 652275); format: functional
[20] = Counterscreen for IDE inhibitors: Luminescence-based cell-based high throughput dose response assay to identify compounds that are cytotoxic to HEK cells. [Related pubchem assays: 434962 (Primary screen (IDE inhibitors in singlicate)), 449730 (Counterscreen (Cytotoxicity in triplicate)), 435028 (Confirmation (IDE inhibitors in triplicate)) …; format: functional; settings: HEK293
[21] = molecular target: T1, Insulin-degrading enzyme (Homo sapiens, UniProt P14735); experiment: Dose Response: Fluorescence polarization-based cell-based high throughput dose response assay for inhibitors of insulin-degrading enzyme (IDE). [Related pubchem assays: 434962 (Primary screen (IDE inhibitors in singlicate)), 449730 (Counterscreen (Cytotoxicity in triplicate)), 435028 (Confirmation (IDE inhibitors in triplicate)), 434984 (Summary …; format: functional
T1 sequence (P14735 whole entry): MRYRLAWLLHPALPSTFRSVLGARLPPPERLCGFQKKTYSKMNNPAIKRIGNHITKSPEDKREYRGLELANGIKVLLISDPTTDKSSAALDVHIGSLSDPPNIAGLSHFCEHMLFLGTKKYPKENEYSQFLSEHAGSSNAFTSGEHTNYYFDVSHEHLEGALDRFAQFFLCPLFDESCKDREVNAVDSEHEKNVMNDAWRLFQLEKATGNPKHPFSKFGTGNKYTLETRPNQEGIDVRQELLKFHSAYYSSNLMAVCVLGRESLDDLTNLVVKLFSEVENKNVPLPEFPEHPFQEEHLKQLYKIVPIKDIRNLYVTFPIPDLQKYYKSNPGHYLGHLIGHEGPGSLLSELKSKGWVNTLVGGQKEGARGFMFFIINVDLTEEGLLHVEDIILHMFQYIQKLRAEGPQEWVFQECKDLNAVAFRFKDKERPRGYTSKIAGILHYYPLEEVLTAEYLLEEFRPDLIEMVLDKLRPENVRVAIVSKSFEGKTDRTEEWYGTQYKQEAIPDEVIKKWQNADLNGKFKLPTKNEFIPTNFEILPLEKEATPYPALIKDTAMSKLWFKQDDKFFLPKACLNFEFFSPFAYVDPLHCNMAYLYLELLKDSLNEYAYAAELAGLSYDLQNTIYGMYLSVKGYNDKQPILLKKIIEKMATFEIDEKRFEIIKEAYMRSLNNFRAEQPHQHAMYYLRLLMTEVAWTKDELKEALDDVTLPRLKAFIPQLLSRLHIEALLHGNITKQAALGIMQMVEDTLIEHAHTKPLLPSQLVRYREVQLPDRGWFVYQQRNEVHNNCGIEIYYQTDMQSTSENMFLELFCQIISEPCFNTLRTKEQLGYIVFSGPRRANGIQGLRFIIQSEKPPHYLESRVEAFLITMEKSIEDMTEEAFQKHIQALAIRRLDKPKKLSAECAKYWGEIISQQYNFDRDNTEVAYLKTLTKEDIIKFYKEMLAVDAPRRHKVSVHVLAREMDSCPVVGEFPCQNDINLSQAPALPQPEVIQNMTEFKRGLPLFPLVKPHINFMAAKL

[22] = molecular target: Transitional endoplasmic reticulum ATPase (Homo sapiens, UniProt P55072); experiment: p97 ATPase inhibitors, dose response, biochemical (AID 1534)
Transitional endoplasmic reticulum ATPase (Homo sapiens, UniProt P55072), sequence (P55072 whole entry): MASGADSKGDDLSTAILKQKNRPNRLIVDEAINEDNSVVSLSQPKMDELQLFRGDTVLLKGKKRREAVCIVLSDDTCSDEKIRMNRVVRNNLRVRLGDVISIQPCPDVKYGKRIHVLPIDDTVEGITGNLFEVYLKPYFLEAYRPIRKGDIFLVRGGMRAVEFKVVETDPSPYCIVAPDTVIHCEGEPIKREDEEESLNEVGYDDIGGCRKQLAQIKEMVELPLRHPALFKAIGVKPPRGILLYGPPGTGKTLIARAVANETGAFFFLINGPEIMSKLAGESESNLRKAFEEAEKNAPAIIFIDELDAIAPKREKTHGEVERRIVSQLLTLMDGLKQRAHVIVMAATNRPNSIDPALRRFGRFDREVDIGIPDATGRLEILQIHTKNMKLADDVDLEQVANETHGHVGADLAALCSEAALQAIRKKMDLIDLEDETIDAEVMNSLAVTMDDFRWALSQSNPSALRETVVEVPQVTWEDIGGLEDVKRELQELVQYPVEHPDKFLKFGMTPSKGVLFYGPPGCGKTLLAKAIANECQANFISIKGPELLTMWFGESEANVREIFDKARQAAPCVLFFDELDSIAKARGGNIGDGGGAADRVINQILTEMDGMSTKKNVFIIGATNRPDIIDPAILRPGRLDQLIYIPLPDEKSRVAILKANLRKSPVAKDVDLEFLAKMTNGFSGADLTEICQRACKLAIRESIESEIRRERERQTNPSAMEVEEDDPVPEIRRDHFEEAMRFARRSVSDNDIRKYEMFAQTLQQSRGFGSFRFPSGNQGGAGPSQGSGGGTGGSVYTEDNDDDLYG

[23] = molecular target: T2, Aminopeptidase N (Plasmodium falciparum FcB1/Columbia, UniProt O96935); experiment: P. falciparum M1AAP inhibitors, biochemical, fluorogenic H-Leu-NHMec substrate, 1536-well (AID 1445); set-up: species or system Plasmodium falciparum 3D7, 3D7
T2 sequence (O96935 whole entry): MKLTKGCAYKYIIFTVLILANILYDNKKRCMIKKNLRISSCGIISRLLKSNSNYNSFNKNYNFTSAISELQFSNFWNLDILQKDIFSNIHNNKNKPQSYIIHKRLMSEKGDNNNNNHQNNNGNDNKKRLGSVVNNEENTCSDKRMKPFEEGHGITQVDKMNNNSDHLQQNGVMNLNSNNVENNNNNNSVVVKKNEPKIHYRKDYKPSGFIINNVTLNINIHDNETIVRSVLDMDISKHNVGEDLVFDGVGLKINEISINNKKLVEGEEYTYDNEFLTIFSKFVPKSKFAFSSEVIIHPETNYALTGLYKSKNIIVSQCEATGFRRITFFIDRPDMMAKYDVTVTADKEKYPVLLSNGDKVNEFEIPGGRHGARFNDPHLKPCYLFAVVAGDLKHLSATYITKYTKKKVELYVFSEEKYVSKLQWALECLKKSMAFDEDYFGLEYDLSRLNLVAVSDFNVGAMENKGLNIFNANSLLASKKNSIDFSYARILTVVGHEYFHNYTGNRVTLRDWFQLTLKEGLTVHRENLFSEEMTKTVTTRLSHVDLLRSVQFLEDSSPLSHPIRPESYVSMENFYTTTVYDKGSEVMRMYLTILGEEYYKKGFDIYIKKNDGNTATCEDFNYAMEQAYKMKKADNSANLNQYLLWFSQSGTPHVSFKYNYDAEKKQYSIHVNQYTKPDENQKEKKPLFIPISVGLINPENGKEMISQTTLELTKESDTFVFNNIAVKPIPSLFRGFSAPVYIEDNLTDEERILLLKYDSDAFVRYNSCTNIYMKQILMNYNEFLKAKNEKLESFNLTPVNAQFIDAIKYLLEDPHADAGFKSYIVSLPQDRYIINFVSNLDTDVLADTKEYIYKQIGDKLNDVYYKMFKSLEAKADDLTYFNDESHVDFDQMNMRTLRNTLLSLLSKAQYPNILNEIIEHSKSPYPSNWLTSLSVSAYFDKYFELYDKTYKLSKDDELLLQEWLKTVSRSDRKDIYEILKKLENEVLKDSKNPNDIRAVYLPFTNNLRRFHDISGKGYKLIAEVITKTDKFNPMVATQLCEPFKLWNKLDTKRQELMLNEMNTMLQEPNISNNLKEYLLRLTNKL

[24] = molecular target: Kallikrein-7 (Homo sapiens, UniProt P49862); experiment: Fluorescence Intensity-based biochemical primary high throughput dose response assay to identify activators of kallikrein-7 (K7) zymogen.
Kallikrein-7, sequence (P49862 whole entry): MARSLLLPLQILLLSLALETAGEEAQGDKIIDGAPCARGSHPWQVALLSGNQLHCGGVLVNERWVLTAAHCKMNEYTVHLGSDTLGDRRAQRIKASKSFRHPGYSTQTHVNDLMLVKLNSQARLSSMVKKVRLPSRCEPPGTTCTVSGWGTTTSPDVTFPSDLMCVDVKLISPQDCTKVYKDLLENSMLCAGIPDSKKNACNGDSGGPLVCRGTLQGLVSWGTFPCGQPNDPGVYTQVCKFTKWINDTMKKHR

[25] = molecular target: T3, Histone-lysine N-methyltransferase NSD2 (Homo sapiens, UniProt O96028); format: biochemical
T3 sequence (O96028 whole entry): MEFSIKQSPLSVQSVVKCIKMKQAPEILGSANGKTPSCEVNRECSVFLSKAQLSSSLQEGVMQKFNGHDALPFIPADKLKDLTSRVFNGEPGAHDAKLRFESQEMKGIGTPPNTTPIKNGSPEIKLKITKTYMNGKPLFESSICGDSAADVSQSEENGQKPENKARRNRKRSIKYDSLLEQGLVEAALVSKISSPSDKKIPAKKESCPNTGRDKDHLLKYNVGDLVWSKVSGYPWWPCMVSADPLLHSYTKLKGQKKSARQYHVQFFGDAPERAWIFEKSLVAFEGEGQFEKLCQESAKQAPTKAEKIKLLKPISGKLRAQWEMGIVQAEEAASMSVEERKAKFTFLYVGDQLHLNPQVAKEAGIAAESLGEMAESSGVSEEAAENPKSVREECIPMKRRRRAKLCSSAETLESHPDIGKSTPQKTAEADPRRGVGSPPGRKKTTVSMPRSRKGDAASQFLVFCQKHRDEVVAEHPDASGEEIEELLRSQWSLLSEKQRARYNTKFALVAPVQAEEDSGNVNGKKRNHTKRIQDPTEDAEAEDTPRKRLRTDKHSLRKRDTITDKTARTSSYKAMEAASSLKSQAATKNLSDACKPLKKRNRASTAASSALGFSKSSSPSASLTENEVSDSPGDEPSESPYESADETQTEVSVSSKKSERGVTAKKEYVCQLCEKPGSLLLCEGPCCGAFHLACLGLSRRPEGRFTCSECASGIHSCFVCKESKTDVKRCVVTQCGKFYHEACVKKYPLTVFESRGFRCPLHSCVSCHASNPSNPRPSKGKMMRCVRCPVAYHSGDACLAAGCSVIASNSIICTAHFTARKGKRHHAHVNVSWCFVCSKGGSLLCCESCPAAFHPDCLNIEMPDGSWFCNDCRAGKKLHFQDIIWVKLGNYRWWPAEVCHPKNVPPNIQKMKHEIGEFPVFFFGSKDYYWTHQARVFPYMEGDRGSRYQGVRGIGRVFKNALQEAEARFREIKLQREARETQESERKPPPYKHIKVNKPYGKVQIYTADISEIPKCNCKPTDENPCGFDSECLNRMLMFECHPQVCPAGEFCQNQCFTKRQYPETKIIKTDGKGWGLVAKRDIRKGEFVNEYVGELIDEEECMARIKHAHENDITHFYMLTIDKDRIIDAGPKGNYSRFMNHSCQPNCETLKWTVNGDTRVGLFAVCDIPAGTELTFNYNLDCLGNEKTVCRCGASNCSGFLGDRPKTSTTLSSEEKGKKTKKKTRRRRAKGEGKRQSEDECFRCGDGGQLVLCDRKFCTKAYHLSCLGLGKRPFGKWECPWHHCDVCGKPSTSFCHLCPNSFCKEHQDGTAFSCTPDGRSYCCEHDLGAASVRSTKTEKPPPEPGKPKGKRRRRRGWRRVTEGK

[26] = molecular target: Transitional endoplasmic reticulum ATPase (Homo sapiens, UniProt P55072, C522A); experiment: C522A mutant p97 ATPase inhibitors, dose response, counter-screen for p97 inhibitor project, biochemical, luminescence (AID 1544)
Transitional endoplasmic reticulum ATPase (Homo sapiens, UniProt P55072, C522A), sequence (P55072 2-806 C522A limits assumed): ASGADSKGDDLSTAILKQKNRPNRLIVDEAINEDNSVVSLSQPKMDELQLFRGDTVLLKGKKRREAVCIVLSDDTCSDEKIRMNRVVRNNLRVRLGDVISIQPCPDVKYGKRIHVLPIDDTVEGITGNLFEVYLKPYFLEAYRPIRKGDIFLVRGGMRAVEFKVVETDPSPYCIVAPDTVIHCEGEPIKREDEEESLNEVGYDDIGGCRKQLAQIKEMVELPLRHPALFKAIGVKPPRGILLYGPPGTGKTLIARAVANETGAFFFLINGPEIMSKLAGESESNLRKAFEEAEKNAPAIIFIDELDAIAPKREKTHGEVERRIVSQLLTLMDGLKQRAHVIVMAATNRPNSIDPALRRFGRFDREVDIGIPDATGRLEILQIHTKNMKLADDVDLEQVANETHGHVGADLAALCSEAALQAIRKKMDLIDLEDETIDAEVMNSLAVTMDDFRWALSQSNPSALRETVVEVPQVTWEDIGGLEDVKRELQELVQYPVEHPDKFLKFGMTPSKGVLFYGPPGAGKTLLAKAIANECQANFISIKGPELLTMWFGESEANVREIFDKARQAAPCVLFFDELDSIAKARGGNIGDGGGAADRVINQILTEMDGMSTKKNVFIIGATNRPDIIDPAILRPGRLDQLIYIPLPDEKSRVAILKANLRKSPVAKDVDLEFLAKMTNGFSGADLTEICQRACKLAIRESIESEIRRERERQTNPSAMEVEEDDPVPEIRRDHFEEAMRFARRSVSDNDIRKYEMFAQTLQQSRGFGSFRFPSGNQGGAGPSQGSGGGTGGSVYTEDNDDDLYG

Compound: CO[C@@H]1CN(C)C(=O)c2ccc(NC(=O)Nc3cccc(F)c3)cc2OC[C@@H](C)N(C(=O)Nc2cccc(F)c2)C[C@H]1C
- AC50 [1]: 61.4 µM (active)
- AC50 [2]: 3.17 µM (active)
- AC50 [3]: 61 µM (active)
- AC50 [4]: > 42 µM (inactive)
- AC50 [5]: 3.07 µM (active)
- AC50 [6]: 8.94 µM (active)

Compound: C[C@H](CO)N1C[C@H](C)[C@@H](CN(C)Cc2ccc(C(F)(F)F)cc2)Oc2ccc(NS(=O)(=O)c3ccc(Cl)cc3)cc2CC1=O
- AC50 [7]: 41.8 µM (active)
- AC50 [8]: 37.7 µM (active)
- AC50 [9]: 12.9 µM (active)
- AC50 [10]: 39 µM (active)
- AC50 [11]: > 70 µM (inactive)
- AC50 [12]: 11.2 µM (active)
- AC50 [13]: 28.6 µM (active)
- AC50 [14]: 29.8 µM (active)
- AC50 [15]: 21.9 µM (active)

- AC50 [16]: > 30 µM (inactive)
Compound: CO[C@H]1CN(C)C(=O)c2ccc(NC(=O)C3CC3)cc2OC[C@@H](C)N(C(=O)c2ccccc2F)C[C@H]1C

Compound: C[C@@H]1CN([C@@H](C)CO)C(=O)c2cccc(NC(=O)c3ccncc3)c2O[C@H]1CN(C)Cc1cccc(Cl)c1
- IC50 [17]: 7.4 nM (active)
- AC50 [18]: 70.6 nM (active)
- AC50 [19]: 16.9 nM (active)

Compound: N=C1/C(=C\c2coc3ccccc3c2=O)C(=O)N=C2SC(c3ccncc3)=NN12
- IC50 [20]: 30.1 µM (not active)
- IC50 [21]: > 18.6 µM (not active)
- IC50 [22]: 11.1 µM (not active)
- IC50 [23]: 44 µM (active)
- EC50 [24]: > 7.72 µM (active)
- AC50 [25]: 18.8 µM (active)
- IC50 [26]: 9.26 µM (active)
